Article PMC7195552 (Journal of Burn Care & Research: Official Publication of …, 2020)
Read-outs that look alike come from different tables or passages of the source.

How the values were obtained:
[1] = Plasma pharmacokinetics of daptomycin in patients with severe burn injuries (LC-MS/MS, DAS 2.0); type: in vivo, human; conditions: for half-life: read-out: t(h)½ (converted)
Experimental: Multiple-dose medication treatment means that daptomycin was administered to burn injury patients as one injection every day of either the standard dose or a high dose. […] During intravenous infusion, vigorous agitation or shaking during drug dissolution was not permitted, thus preventing the formation of gas bubbles. […] The samples were centrifuged and stored at −80°C until required for analysis. PK evaluation was performed by measuring the daptomycin levels in blood samples, using liquid chromatography–mass spectrometry/mass spectrometry (LC-MS/MS) (Waters Micromass Quattro Micro API LC-MS/MS). Chromatographic separation was performed at 35°C using a RP-C18 (Welch Ultimate, 3.0 mm × 150 mm) analytical column. […] PK parameters were calculated using DAS 2.0. […] The maximum plasma concentration (Cmax) and the time at which it occurred (Tmax) were determined directly from the measured plasma concentration–time without interpolation. […] The total body clearance (CL) was obtained from dose/AUC0–∞. The volume of distribution (Vd) was calculated using the equation CL/Ke.

[2] = Creatine phosphokinase levels and adverse events during daptomycin treatment; type: in vivo, human
From the text: The level returned to a normal value without discontinuation of daptomycin treatment. There were no significant CPK differences in the indicated time points between the groups (Table 8).

[3] = Hepatorenal function index of patients after daptomycin medication; conditions: 12 mg/kg/d, average ± SD n = 7, patients received supplemental plasma albumin
Experimental: All statistical analyses were conducted using SAS™ 9.3 software (Cary, NC) and a P value <.05 was considered to be statistically significant.

[4] = patient 1, 12 mg/kg/d iv, multiple dose
[5] = patient 1, 12 mg/kg/d iv, single dose
[6] = patient 2, 12 mg/kg/d iv, multiple dose
[7] = patient 2, 12 mg/kg/d iv, single dose
[8] = patient 3, 12 mg/kg/d iv, multiple dose
[9] = patient 3, 12 mg/kg/d iv, single dose
[10] = patient 4, 12 mg/kg/d iv, multiple dose
[11] = patient 4, 12 mg/kg/d iv, single dose
[12] = patient 5, 12 mg/kg/d iv, multiple dose
[13] = patient 5, 12 mg/kg/d iv, single dose
[14] = patient 6, 12 mg/kg/d iv, multiple dose
[15] = patient 6, 12 mg/kg/d iv, single dose
[16] = patient 7, 12 mg/kg/d iv, multiple dose
[17] = patient 7, 12 mg/kg/d iv, single dose
[18] = patient 8, 6 mg/kg/d iv, multiple dose
[19] = patient 8, 6 mg/kg/d iv, single dose
[20] = patient 9, 6 mg/kg/d iv, multiple dose
[21] = patient 9, 6 mg/kg/d iv, single dose
[22] = patient 10, 6 mg/kg/d iv, multiple dose
[23] = patient 10, 6 mg/kg/d iv, single dose

CCCCCCCCCC(=O)N[C@@H](Cc1c[nH]c2ccccc12)C(=O)N[C@H](CC(N)=O)C(=O)N[C@@H](CC(=O)O)C(=O)N[C@@H]1C(=O)NCC(=O)N[C@@H](CCCN)C(=O)N[C@@H](CC(=O)O)C(=O)N[C@H](C)C(=O)N[C@@H](CC(=O)O)C(=O)NCC(=O)N[C@H](CO)C(=O)N[C@@H]([C@H](C)CC(=O)O)C(=O)N[C@@H](CC(=O)c2ccccc2N)C(=O)O[C@@H]1C [daptomycin]
CL ([1]; 6 mg/kg/d iv, multiple dose (day 6), average ± SD n = 3, SD): 0.412 ± 0.197 mL/min/kg | V d ([1]; 12 mg/kg/d iv, multiple dose (day 6), average ± SD n = 7, SD): 0.24 ± 0.11 L/kg | Tmax ([1]; human, in vivo, iv, 6 mg/kg): ~2 h | half-life ([1]; human, in vivo, iv, 6 mg/kg/d, 6 mg/kg/d iv, multiple dose (day 6), average ± SD n = 3, SD): 6.47 ± 1.34 h | half-life ([1]; human, in vivo, iv, 6 mg/kg/d, 6 mg/kg/d iv, single dose, average ± SD n = 3, SD): 5.64 ± 1 h | clearance ([1]; human, in vivo, iv, 12 mg/kg/d, 12 mg/kg/d iv, single dose, average ± SD n = 7, SD, read-out: CL (converted)): 0.375 mL/min/kg | half-life ([1]; human, in vivo, iv, 12 mg/kg/d, 12 mg/kg/d iv, single dose, average ± SD n = 7, SD): 7.4 ± 2.5 h | V d ([1]; human, in vivo, iv, V d, SD): 0.24 ± 0.1 L/kg | V d ([1]; human, in vivo, iv, SD): 0.19 ± 0.1 L/kg | clearance ([1]; human, in vivo, iv, SD): 0.403 mL/min/kg | AUC(0-t) ([1]; human, in vivo, 6 mg/kg/d iv, single dose, average ± SD n = 3, SD, read-out: AUC0–24): 255 ± 51.6 µg·h/mL | clearance ([1]; human, in vivo, 12 mg/kg/d iv, multiple dose (day 6), average ± SD n = 7, SD, read-out: CL (converted)): 0.33 mL/min/kg | t(h)½ ([1]; multiple doses, independent of the dose received (all patients)): 8.10 ± 1.91 h | AUC0–24 [1, 4]: 588.2 µg·h/mL | CL [1, 4]: 0.34 mL/min/kg | V d [1, 4]: 0.26 L/kg | t(h)½ [1, 4]: 8.8 h | AUC0–24 [1, 5]: 486.9 µg·h/mL | CL [1, 5]: 0.365 mL/min/kg | V d [1, 5]: 0.26 L/kg | AUC0–24 [1, 6]: 679.0 µg·h/mL | CL [1, 6]: 0.2945 mL/min/kg | V d [1, 6]: 0.22 L/kg | t(h)½ [1, 6]: 8.5 h | AUC0–24 [1, 7]: 511.2 µg·h/mL | CL [1, 7]: 0.36 mL/min/kg | V d [1, 7]: 0.21 L/kg | t(h)½ [1, 7]: 0.5 h | AUC0–24 [1, 8]: 580.7 µg·h/mL | CL [1, 8]: 0.3443 mL/min/kg | V d [1, 8]: 0.20 L/kg | t(h)½ [1, 8]: 6.7 h | AUC0–24 [1, 9]: 426.7 µg·h/mL | CL [1, 9]: 0.423 mL/min/kg | V d [1, 9]: 0.25 L/kg | t(h)½ [1, 9]: 0.5 h | AUC0–24 [1, 10]: 709.6 µg·h/mL | CL [1, 10]: 0.2818 mL/min/kg | V d [1, 10]: 0.16 L/kg | t(h)½ [1, 10]: 6.6 h | AUC0–24 [1, 11]: 477.6 µg·h/mL | CL [1, 11]: 0.388 mL/min/kg | V d [1, 11]: 0.29 L/kg | t(h)½ [1, 11]: 0.5 h | AUC0–24 [1, 12]: 987.6 µg·h/mL | CL [1, 12]: 0.2025 mL/min/kg | V d [1, 12]: 0.10 L/kg | t(h)½ [1, 12]: 5.7 h | AUC0–24 [1, 13]: 809.9 µg·h/mL | CL [1, 13]: 0.235 mL/min/kg | V d [1, 13]: 0.10 L/kg | t(h)½ [1, 13]: 1.5 h | AUC0–24 [1, 14]: 489.1 µg·h/mL | CL [1, 14]: 0.4088 mL/min/kg | V d [1, 14]: 0.32 L/kg | t(h)½ [1, 14]: 9.1 h | AUC0–24 [1, 15]: 439.4 µg·h/mL | CL [1, 15]: 0.445 mL/min/kg | V d [1, 15]: 0.15 L/kg | t(h)½ [1, 15]: 0.5 h | AUC0–24 [1, 16]: 456.2 µg·h/mL | CL [1, 16]: 0.4383 mL/min/kg | V d [1, 16]: 0.43 L/kg | t(h)½ [1, 16]: 11.3 h | AUC0–24 [1, 17]: 399.0 µg·h/mL | CL [1, 17]: 0.405 mL/min/kg | V d [1, 17]: 0.41 L/kg | t(h)½ [1, 17]: 0.5 h | AUC0–24 [1, 18]: 394.7 µg·h/mL | CL [1, 18]: 0.2928 mL/min/kg | V d [1, 18]: 0.15 L/kg | t(h)½ [1, 18]: 6.093 h | AUC0–24 [1, 19]: 273.7 µg·h/mL | CL [1, 19]: 0.3653 mL/min/kg | V d [1, 19]: 0.14 L/kg | t(h)½ [1, 19]: 4.97 h | AUC0–24 [1, 20]: 249.5 µg·h/mL | CL [1, 20]: 0.6387 mL/min/kg | V d [1, 20]: 0.44 L/kg | t(h)½ [1, 20]: 7.958 h | AUC0–24 [1, 21]: 197.0 µg·h/mL | CL [1, 21]: 0.5075 mL/min/kg | V d [1, 21]: 0.27 L/kg | t(h)½ [1, 21]: 6.737 h | AUC0–24 [1, 22]: 330.3 µg·h/mL | CL [1, 22]: 0.3027 mL/min/kg | V d [1, 22]: 0.14 L/kg | t(h)½ [1, 22]: 5.349 h | AUC0–24 [1, 23]: 295.2 µg·h/mL | CL [1, 23]: 0.3387 mL/min/kg | V d [1, 23]: 0.15 L/kg | t(h)½ [1, 23]: 5.377 h | serious adverse events or treatment discontinuations ([2]; 12 mg/kg/d iv once daily, entire study period): no serious adverse events or treatment discontinuations | CPK adverse reaction ([2]; patient no. 3, high-dose, day 3, returned to normal without discontinuation): transient increase of CPK | serious adverse events and nonserious AEs leading to discontinuation ([2]; whole study, 6 or 12 mg/kg/d for 7 to 14 days, 10 patients): No serious adverse events | Alb after daptomycin treatment (7 days) [3]: 40.5 ± 4.6 g/L
